Columns and labels:
[1] = molecular target: T1, Wee1A kinase (CDK1 Tyr15 phosphorylation in ACHN renal cell carcinoma cells) (Homo sapiens, UniProt P30291); assay: High-content imaging of pCdk1 Y15, Wee1A kinase target engagement in ACHN cells; type: cell-based; conditions: 4 h treatment, nuclear positivity for pCdk1 Y15 vs DMSO control, read-out: CDK1 Tyr15 Phosphorylation EC50
T1 construct: pCDK1 Tyr15 immunofluorescence read-out
Summary of the method: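 ACHN cells exposed to compound for 4 h over 7–5,000 nM or 0.3–200 nM, then fixed and immunostained for pCDK1 Y15 with DAPI nuclear counterstain. The percentage of pCdk1 Y15 nucleus-positive cells relative to DMSO control was imaged per well; EC50 from dose-response curves.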

[2] = molecular target: T2, Myt1 kinase (recombinant PMYT-1) (Homo sapiens, UniProt Q99640); assay: Myt1 kinase binding assay (LanthaScreen Eu Kinase Binding Assay); conditions: 3 nM tracer 178, 2.5 nM PMYT-1, 1 nM Eu-labeled antibody; read-out: Myt1 kinase Binding IC50
T2 construct: full length PMYT-1 was expressed by baculovirus in insect cells; purchased Invitrogen A30984; host or cells: insect cells (baculovirus)
T2 sequence (Q99640 1-499): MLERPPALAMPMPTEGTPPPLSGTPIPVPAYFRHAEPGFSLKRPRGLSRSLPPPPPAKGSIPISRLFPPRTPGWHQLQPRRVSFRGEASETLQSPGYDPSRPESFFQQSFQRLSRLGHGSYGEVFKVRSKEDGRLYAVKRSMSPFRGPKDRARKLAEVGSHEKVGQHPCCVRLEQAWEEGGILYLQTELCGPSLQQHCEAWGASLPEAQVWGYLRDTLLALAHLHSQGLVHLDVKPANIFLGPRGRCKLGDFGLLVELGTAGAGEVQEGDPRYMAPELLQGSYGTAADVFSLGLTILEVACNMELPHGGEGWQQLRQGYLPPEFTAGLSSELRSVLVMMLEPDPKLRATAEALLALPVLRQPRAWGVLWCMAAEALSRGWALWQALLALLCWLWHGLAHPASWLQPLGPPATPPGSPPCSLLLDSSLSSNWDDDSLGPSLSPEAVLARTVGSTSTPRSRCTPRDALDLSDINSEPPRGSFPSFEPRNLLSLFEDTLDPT
Summary of the method: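 The binding affinity of compounds for Myt1 kinase was measured with a LanthaScreen Europium (Eu) Kinase Binding Assay, a time-resolved FRET format in which test compounds compete against a labeled kinase tracer, and the results were expressed as IC50 values describing compound binding to Myt1.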

ACHN cells = assay: Cell Titer Glo viability assay, ACHN cells; type: cell-based; conditions: Homo sapiens, 144 h, absolute EC50
Summary of the method: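 Cells grown in MEM with 10% FCS were seeded at 500 (A427), 400 (ACHN) or 250 (DAOY) per well and treated the next day with compound at 17 to 10 000 nM. Viability relative to untreated control was read at 144 h by CellTiter-Glo 2.0.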

[3] = molecular target: T3, Myt1 kinase (CDK1 Thr14 phosphorylation in DAOY medulloblastoma cells) (Homo sapiens, UniProt Q99640); assay: AlphaLISA assay, Myt1 kinase target engagement (phospho-CDK1 Thr14) in DAOY cells; type: cell-based; conditions: 4 h treatment, read-out: CDK1 Thr14 Phosphorylation EC50
T3 construct: pCDK1 Thr14 AlphaLISA read-out
T3 sequence (Q99640 1-499): T2 sequence (Q99640 1-499)
Procedure: Each of an ACHN renal cell carcinoma cell line (ATCC) and a DAOY medulloblastoma cell line, and an A427 lung cancer line were cultured in Minimum Essential Medium Eagle supplemented with 10% fetal calf serum (Sigma), 1% Penicillin-Streptomycin and 10 mM HEPES buffer (HyClone). Cell cultures were kept in a humidified incubator at 37 °C and 5% CO2. Cells were routinely tested for Mycoplasma contamination.
For target engagement assessment of Myt1 kinase inhibition, quantification of Cdk1 phosphorylated on threonine 14 was detected using the AlphaLISA® SureFire® Ultra™ Human Phospho-CDK1 (Thr14) assay (Perkin Elmer). DAOY or ACHN cells were seeded into tissue culture treated 96-well plates (VWR) to a density of 10,000 or 20,000 cells per well respectively. 24 h post seeding cells were treated for 4 h with compounds at concentrations ranging from 7 to 5000 nM. Cells were washed with PBS and lysed in 50 μl AlphaLISA lysis buffer before freezing at −80 C. Ten ul of the lysate was transferred to 384 well plates and incubated with AlphaLISA donor and acceptor beads according to the manufacturer's instructions. Dose response curves and EC50 values were calculated and visualized using GraphPad Prism version 9. Target engagement for Myt1 kinase can also be measured using the same AlphaLISA assay in OVCAR3 cells, an ovarian cancer cell line. NIH:OVCAR-3 (OVCAR3) cells are cultured in RPMI-1640 medium supplemented with 0.01 mg/ml insulin, 20% FBS, 1% Penicillin-Streptomycin and 10 mM HEPES buffer. 14,000 cells per well are seeded into 96 well tissue culture plates in full medium. Twenty-four hours post seeding, cells are treated with compound for 4 hours at concentrations ranging from 0.017 nM to 1000 nM.

[4] = molecular target: T4, recombinant human Wee1A kinase (Homo sapiens, UniProt P30291); assay: Wee1A kinase binding assay (LanthaScreen Eu time-resolved FRET); conditions: 30 nM tracer 178, 5 nM Wee1A kinase, 2 nM Eu-labeled antibody; 60 minutes at room temperature; read-out: Wee1A kinase Binding IC50
T4 construct: full length Wee1 kinase was expressed by baculovirus in insect cells; purchased Invitrogen PV3817; host or cells: insect cells (baculovirus)
T4 sequence (P30291 whole entry): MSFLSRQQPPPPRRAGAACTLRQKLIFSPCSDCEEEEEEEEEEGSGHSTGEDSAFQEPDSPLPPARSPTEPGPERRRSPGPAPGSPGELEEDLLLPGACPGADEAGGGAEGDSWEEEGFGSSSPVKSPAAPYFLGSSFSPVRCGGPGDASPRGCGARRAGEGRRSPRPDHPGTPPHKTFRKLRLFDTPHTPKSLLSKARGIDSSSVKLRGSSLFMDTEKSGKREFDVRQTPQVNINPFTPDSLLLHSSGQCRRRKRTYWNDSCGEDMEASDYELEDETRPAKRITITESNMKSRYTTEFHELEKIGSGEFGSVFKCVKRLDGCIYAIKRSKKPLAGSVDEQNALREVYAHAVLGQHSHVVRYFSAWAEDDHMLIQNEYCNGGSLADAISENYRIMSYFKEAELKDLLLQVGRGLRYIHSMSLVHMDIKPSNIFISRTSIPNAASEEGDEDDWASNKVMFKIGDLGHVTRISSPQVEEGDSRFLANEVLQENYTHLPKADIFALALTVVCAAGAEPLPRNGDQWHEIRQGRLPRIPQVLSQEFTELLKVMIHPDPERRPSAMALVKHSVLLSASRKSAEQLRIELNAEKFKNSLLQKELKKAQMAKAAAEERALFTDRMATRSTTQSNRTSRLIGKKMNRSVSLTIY
Summary of the method: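 Full-length, baculovirus-expressed GST-tagged Wee1A (5 nM) was mixed with 2 nM Eu-anti-GST antibody, 30 nM kinase tracer 178 and compound (1% DMSO). Buffer was 50 mM HEPES pH 7.5, 10 mM MgCl2, 1 mM EGTA, 0.01% Brij-35, incubated 60 min at room temperature. TR-FRET 665/615 nm emission ratios from duplicates were curve-fitted.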

T1 sequence (P30291 whole entry): as above

Structure (SMILES)	EC50 [1] [nM]	IC50 [2] [nM]	EC50 (ACHN cells) [nM]	EC50 [3] [nM]	IC50 [4] [nM]
C=CCn1c(=O)c2cnc(Nc3ccc4ncccc4c3)nc2n1-c1cccc(OC2CCNCC2)n1 [Compound 242, 2-allyl-1-[6-(4-piperidyloxy)-2-pyridyl]-6-(6-quinolylamino)-1,2-dihydro-3H-1,2,5,7-tetraazainden-3-one]	100 to 500	< 20	100 to 500	500 to 1000	< 10
C=CCn1c(=O)c2cnc(Nc3ccc4cccnc4c3)nc2n1-c1cccc(OC2CCNCC2)n1 [Compound 243, 2-allyl-1-[6-(4-piperidyloxy)-2-pyridyl]-6-(7-quinolylamino)-1,2-dihydro-3H-1,2,5,7-tetraazainden-3-one]	< 100	< 20	100 to 500	500 to 1000	< 10
C=CCn1c(=O)c2cnc(Nc3ccc4cnccc4c3)nc2n1-c1cccc(OC2CCNCC2)n1 [Compound 244, 2-allyl-6-(6-isoquinolylamino)-1-[6-(4-piperidyloxy)-2-pyridyl]-1,2-dihydro-3H-1,2,5,7-tetraazainden-3-one]	< 100	20 to 100	100 to 500	500 to 1000	< 10
C=CCn1c(=O)c2cnc(Nc3ccc(OC)nc3)nc2n1-c1cccc(OC2CCN(C)CC2)n1 [Compound 250, 2-allyl-6-(6-methoxy-3-pyridylamino)-1-[6-(1-methyl-4-piperidyloxy)-2-pyridyl]-1,2-dihydro-3H-1,2,5,7-tetraazainden-3-one]	< 100	20 to 100	≤ 100	200 to 500	< 10
C=CCn1c(=O)c2cnc(Nc3ccc(OCC(F)(F)F)cc3)nc2n1-c1ccnc(OC2CCN(C)CC2)n1 [Compound 253, 2-allyl-1-(2-((1-methylpiperidin-4-yl)oxy)pyrimidin-4-yl)-6-((4-(2,2,2-trifluoroethoxy)phenyl)amino)-1,2-dihydro-3H-pyrazolo[3,4-d]pyrimidin-3-one]	< 100	20 to 100	≤ 100	> 1000	< 10
C=CCn1c(=O)c2cnc(Nc3ccc(OCC)cc3)nc2n1-c1cccc(OC2CCNCC2)n1 [Compound 254, 2-allyl-6-((4-ethoxyphenyl)amino)-1-(6-(piperidin-4-yloxy)pyridin-2-yl)-1,2-dihydro-3H-pyrazolo[3,4-d]pyrimidin-3-one]	< 100	20 to 100	≤ 100	500 to 1000	< 10
C=CCn1c(=O)c2cnc(Nc3ccc(OCC)cc3)nc2n1-c1cccc(OC2CCN(C)CC2)n1 [Compound 255, 2-allyl-6-((4-ethoxyphenyl)amino)-1-(6-((1-methylpiperidin-4-yl)oxy)pyridin-2-yl)-1,2-dihydro-3H-pyrazolo[3,4-d]pyrimidin-3-one]	< 100	< 20	≤ 100	200 to 500	< 10
C=CCn1c(=O)c2cnc(Nc3ccc(OCC(C)C)cc3)nc2n1-c1cccc(OC2CCN(C)CC2)n1 [Compound 257, 2-allyl-6-((4-isobutoxyphenyl)amino)-1-(6-((1-methylpiperidin-4-yl)oxy)pyridin-2-yl)-1,2-dihydro-3H-pyrazolo[3,4-d]pyrimidin-3-one]	< 100	< 20	≤ 100	500 to 1000	< 10
C=CCn1c(=O)c2cnc(Nc3ccc(OCC4CC4)cc3)nc2n1-c1cccc(OC2CCN(C)CC2)n1 [Compound 258, 2-allyl-6-((4-(cyclopropylmethoxy)phenyl)amino)-1-(6-((1-methylpiperidin-4-yl)oxy)pyridin-2-yl)-1,2-dihydro-3H-pyrazolo[3,4-d]pyrimidin-3-one]	< 100	< 20	≤ 100	200 to 500	< 10
C=CCn1c(=O)c2cnc(Nc3ccc(OCC4CC4)cc3)nc2n1-c1cccc(OC2CCNCC2)n1 [Compound 259, 2-allyl-6-((4-(cyclopropylmethoxy)phenyl)amino)-1-(6-(piperidin-4-yloxy)pyridin-2-yl)-1,2-dihydro-3H-pyrazolo[3,4-d]pyrimidin-3-one]	< 100	< 20	≤ 100	200 to 500	< 10
C=CCn1c(=O)c2cnc(Nc3ccc4nc(C)sc4c3)nc2n1-c1cccc(OC2CCN(C)CC2)n1 [Compound 260, 2-allyl-6-(2-methyl-1,3-benzothiazol-6-ylamino)-1-[6-(1-methyl-4-piperidyloxy)-2-pyridyl]-1,2-dihydro-3H-1,2,5,7-tetraazainden-3-one]	< 100	< 20	≤ 100	200 to 500	< 10
C=CCn1c(=O)c2cnc(Nc3ccc(N4CCOCC4)c(C)c3)nc2n1-c1cccc(OC2CCN(C)CC2)n1 [Compound 270, 2-allyl-1-[6-(1-methyl-4-piperidyloxy)-2-pyridyl]-6-(4-morpholino-3-toluidino)-1,2-dihydro-3H-1,2,5,7-tetraazainden-3-one]	< 100	< 20	≤ 100	< 200	< 10
C=CCn1c(=O)c2cnc(Nc3ccc4nn(C)cc4c3)nc2n1-c1cccc(OC2CCN(C)CC2)n1 [Compound 273, 2-allyl-6-((2-methyl-2H-indazol-5-yl)amino)-1-(6-((1-methylpiperidin-4-yl)oxy)pyridin-2-yl)-1,2-dihydro-3H-pyrazolo[3,4-d]pyrimidin-3-one]	< 100	< 20	≤ 100	< 200	< 10
C=CCn1c(=O)c2cnc(Nc3ccc(C#N)c(C)c3)nc2n1-c1cccc(OC2CCNCC2)n1 [Compound 293, 5-{2-allyl-3-oxo-1-[6-(4-piperidyloxy)-2-pyridyl]-1,2-dihydro-3H-1,2,5,7-tetraazainden-6-ylamino}-2-toluonitrile]	< 100	20 to 100	100 to 500	200 to 500	< 10
C=CCn1c(=O)c2cnc(Nc3ccc4c(cnn4C)c3)nc2n1-c1ccnc(NC2CCN(C)CC2)n1 [Compound 313, 2-allyl-6-(1-methyl-1H-indazol-5-ylamino)-1-[2-(1-methyl-4-piperidylamino)-4-pyrimidinyl]-1,2-dihydro-3H-1,2,5,7-tetraazainden-3-one]	< 100	20 to 100	≤ 100	> 1000	< 10

Reference: US20260364080A1, “PYRAZOLO-PYRIMIDINONE COMPOUNDS FOR USE IN METHODS OF INHIBITING WEE1 A KINASE” (Acrivon Therapeutics, Inc., priority 2023, published 2026)
